In the supplement of paper PMC7661543:
± gives the standard deviation of the averaged measurements.

Experiments:
Assay in all cases: relative cell number vs DMSO control (72 h) (% of DMSO); higher = less growth inhibition (more cells)
Settings in all cases: sgRNA knockout: sgNT
HCC-38 = tested on: HCC-38
Experimental: (§1)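 QMAP-Seq: a pool of 5 breast cancer cell lines (ZR-75-1, SKBR3, HCC-38, MDA-MB-231, BT-20), each carrying 12 doxycycline-inducible Cas9 sgRNA perturbations (11 knockouts plus non-targeting sgNT), was treated with compounds for 72 h at four 10-fold doses (10 nM-10 uM or 1 nM-1 uM range). Barcodes were amplified and sequenced, and cell number was interpolated from 293T spike-in standard curves. The result is expressed as % of the median of DMSO wells. Two biological replicates.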

MDA-MB-231 = tested on: MDA-MB-231
Experimental: as §1

SKBR3 = tested on: SKBR3
Experimental: as §1

BT-20 = tested on: BT-20
Experimental: as §1

ZR-75-1 = tested on: ZR-75-1
Experimental: as §1

Row | SMILES | relative cell number (HCC-38; 10 nM) | relative cell number (HCC-38; 100 nM) | relative cell number (HCC-38; 1000 nM) | relative cell number (HCC-38; 10000 nM) | relative cell number (MDA-MB-231; 10 nM) | relative cell number (MDA-MB-231; 100 nM) | relative cell number (MDA-MB-231; 1000 nM) | relative cell number (MDA-MB-231; 10000 nM) | relative cell number (SKBR3; 10 nM) | relative cell number (SKBR3; 100 nM) | relative cell number (SKBR3; 1000 nM) | relative cell number (SKBR3; 10000 nM) | relative cell number (BT-20; 10 nM) | relative cell number (BT-20; 100 nM) | relative cell number (BT-20; 1000 nM) | relative cell number (BT-20; 10000 nM) | relative cell number (ZR-75-1; 10 nM) | relative cell number (ZR-75-1; 100 nM) | relative cell number (ZR-75-1; 1000 nM) | relative cell number (ZR-75-1; 10000 nM) | relative cell number (HCC-38; 1 nM) | relative cell number (MDA-MB-231; 1 nM) | relative cell number (SKBR3; 1 nM) | relative cell number (BT-20; 1 nM) | relative cell number (ZR-75-1; 1 nM)
1 | C#Cc1cccc(Nc2ncnc3cc(OCCOC)c(OCCOC)cc23)c1 [Erlotinib] | 105 ± 3 | 87.3 ± 9.9 | 99.1 ± 6.6 | 94.8 ± 1.3 | 98.8 ± 11 | 83.4 ± 2.6 | 98.4 ± 8.8 | 83.6 ± 2.8 | 124 ± 20 | 97.3 ± 14 | 79 ± 12 | 43.6 ± 8.1 | 103 ± 8.8 | 82.9 ± 2.6 | 81.9 ± 2 | 82.9 ± 8.9 | 99 ± 27 | 63.2 ± 3.8 | 97 ± 18 | 84.2 ± 26 |  |  |  |  | 
2 | CCOC(=O)[C@@]1(CCCCCCOc2ccc(Cl)cc2)CO1 [Etomoxir] | 94.85 ± 0.42 | 94.52 ± 0.29 | 107 ± 19 | 86.4 ± 3.9 | 120 ± 25 | 109 ± 1.7 | 114 ± 30 | 92.8 ± 19 | 80.7 ± 22 | 98.3 ± 11 | 86.5 ± 40 | 98.3 ± 36 | 97.7 ± 1 | 90.3 ± 13 | 122 ± 23 | 107 ± 9.7 | 67.6 ± 37 | 90.7 ± 8.2 | 75.46 ± 0.14 | 57.2 ± 7.3 |  |  |  |  | 
3 | COc1cc([C@@H]2c3cc4c(cc3[C@@H](O[C@@H]3O[C@@H]5CO[C@@H](C)O[C@H]5[C@H](O)[C@H]3O)[C@H]3COC(=O)[C@H]23)OCO4)cc(OC)c1O [Etoposide] | 75.4 ± 33 | 84.8 ± 13 | 31.6 ± 5.3 | 20.5 ± 1.8 | 81.6 ± 3.5 | 71.7 ± 1.1 | 21.8 ± 1.8 | 11.9 ± 1.1 | 58 ± 10 | 50.1 ± 4.5 | 31.3 ± 9.5 | 12.6 ± 12 | 87 ± 6.6 | 83 ± 1.2 | 52.6 ± 0.56 | 36 ± 15 | 56 ± 2.7 | 54.5 ± 4.6 | 46.8 ± 4.2 | 31.5 ± 1.5 |  |  |  |  | 
4 | CO[C@H]1C[C@@H]2CC[C@@H](C)[C@@](O)(O2)C(=O)C(=O)N2CCCC[C@H]2C(=O)O[C@H]([C@H](C)C[C@@H]2CC[C@@H](OCCO)[C@H](OC)C2)CC(=O)[C@H](C)/C=C(\C)[C@@H](O)[C@@H](OC)C(=O)[C@H](C)C[C@H](C)/C=C/C=C/C=C/1C [Everolimus] | 59.2 ± 2.3 | 64.7 ± 2.1 | 59.7 ± 3.3 |  | 50.9 ± 14 | 87.5 ± 11 | 88.3 ± 6.2 |  | 67.6 ± 1.8 | 57.5 ± 21 | 70.7 ± 0.84 |  | 63.7 ± 4.2 | 49.5 ± 6.8 | 71.5 ± 5.7 |  | 66.8 ± 8.4 | 58 ± 11 | 42.7 ± 18 |  | 56.5 ± 4.8 | 76.3 ± 15 | 55.6 ± 18 | 56 ± 3.1 | 69.7 ± 18
5 | C=C1C[C@@H]2[C@H](CC[C@]3(C)C(=O)CC[C@@H]23)[C@@]2(C)C=CC(=O)C=C12 [Exemestane] | 108 ± 28 | 92 ± 12 | 113 ± 3.1 | 109 ± 25 | 89.3 ± 13 | 88.2 ± 22 | 80.5 ± 6 | 69.8 ± 21 | 108 ± 22 | 93.4 ± 18 | 115 ± 9.4 | 102 ± 12 | 99.8 ± 6 | 89.5 ± 1.1 | 103 ± 5.9 | 95.4 ± 9.2 | 123 ± 22 | 82.5 ± 26 | 104 ± 67 | 99 ± 4.8 |  |  |  |  | 
6 | CC(C)n1c(/C=C/C(O)CC(O)CC(=O)O)c(-c2ccc(F)cc2)c2ccccc21 (stereo not given) [Fluvastatin] | 110 ± 7.6 | 102 ± 6.7 | 96.6 ± 11 | 65.4 ± 2.2 | 108 ± 46 | 92.1 ± 46 | 30.8 ± 7.9 | 10.6 ± 3.6 | 64.9 ± 4 | 87.3 ± 1.6 | 82.5 ± 41 | 51 ± 34 | 67.8 ± 3.3 | 95 ± 7 | 97.3 ± 4.6 | 72.2 ± 16 | 78.2 ± 28 | 83.5 ± 20 | 62.6 ± 22 | 78.7 ± 1.4 |  |  |  |  | 
7 | C[C@]12CC[C@@H]3c4ccc(O)cc4C[C@@H](CCCCCCCCC[S+]([O-])CCCC(F)(F)C(F)(F)F)[C@H]3[C@@H]1CC[C@@H]2O (stereo not given in full) [Fulvestrant] | 83.8 ± 12 | 102 ± 2 | 103 ± 6.4 | 94.5 ± 1.7 | 83.6 ± 3.7 | 93.5 ± 22 | 89.8 ± 4 | 92 ± 12 | 90.75 ± 0.73 | 48.8 ± 3.3 | 65.8 ± 26 | 65.9 ± 19 | 95.9 ± 6.4 | 79.5 ± 6.8 | 86.6 ± 16 | 110 ± 24 | 66.3 ± 28 | 41.9 ± 3.1 | 73.3 ± 26 | 84 ± 39 |  |  |  |  | 
8 | OCCn1cc(-c2ccc3c(c2)CC/C3=N\O)c(-c2ccncc2)n1 [GDC0879] | 104 ± 17 | 124 ± 10 | 134 ± 12 | 107 ± 4.3 | 114 ± 15 | 92 ± 2.5 | 106 ± 4.8 | 105 ± 5.9 | 114 ± 27 | 151 ± 3.4 | 81.8 ± 29 | 110 ± 11 | 103 ± 17 | 112 ± 4.5 | 130 ± 8 | 110 ± 1.5 | 128.7 ± 1.1 | 137 ± 11 | 131 ± 12 | 122 ± 81 |  |  |  |  | 
9 | CS(=O)(=O)N1CCN(Cc2cc3nc(-c4cccc5[nH]ncc45)nc(N4CCOCC4)c3s2)CC1 [GDC0941] | 94.3 ± 5.9 | 95 ± 5.9 | 79.2 ± 12 | 33.5 ± 0.44 | 126 ± 30 | 84 ± 21 | 66.3 ± 8.2 | 44.3 ± 12 | 96.1 ± 17 | 67.8 ± 33 | 38.6 ± 4.8 | 35.6 ± 8.4 | 106 ± 16 | 82.9 ± 45 | 59.6 ± 12 | 55.9 ± 24 | 94.4 ± 15 | 62.4 ± 20 | 52.5 ± 23 | 26.1 ± 8.7 |  |  |  |  | 
10 | CC(C)(C)OC(=O)CN(Cc1ccc(Cl)cc1)Cc1ccc([N+](=O)[O-])s1 [GSK4112] | 78.9 ± 4.7 | 95.1 ± 11 | 95.8 ± 10 | 96.5 ± 11 | 82.6 ± 9.2 | 96.4 ± 7.3 | 82.9 ± 9.5 | 114 ± 40 | 87.6 ± 3.9 | 89 ± 20 | 66.5 ± 15 | 117 ± 11 | 73.6 ± 2 | 111 ± 14 | 94 ± 20 | 104 ± 3.4 | 100 ± 4.8 | 148 ± 35 | 86.4 ± 8.4 | 100 ± 29 |  |  |  |  | 
11 | CCOC(=O)CCNc1cc(N2CCc3ccccc3CC2)nc(-c2ccccn2)n1 [GSKJ4] | 103 ± 7.2 | 98.1 ± 1.7 | 96.1 ± 22 | 60.8 ± 9.7 | 98.3 ± 30 | 123 ± 22 | 96.8 ± 44 | 34 ± 7.1 | 94.1 ± 37 | 104 ± 3.1 | 101 ± 9.6 | 88.8 ± 34 | 86.2 ± 8 | 105 ± 1.5 | 122 ± 12 | 52.7 ± 5.3 | 125 ± 56 | 113 ± 3.1 | 110 ± 7.2 | 33.4 ± 1.8 |  |  |  |  | 
12 | CC(C)c1cc(-c2n[nH]c(=O)n2-c2ccc3c(ccn3C)c2)c(O)cc1O [Ganetespib] | 94.7 ± 2.2 | 26.6 ± 1.2 | 18.5 ± 2.5 |  | 88.7 ± 21 | 13.7 ± 1.3 | 11.4 ± 7.9 |  | 75.4 ± 13 | 24.1 ± 5.2 | 30.5 ± 9.4 |  | 89.9 ± 2.6 | 44.8 ± 0.61 | 48.5 ± 11 |  | 83.6 ± 40 | 18 ± 1.4 | 27.2 ± 3.3 |  | 91 ± 2.5 | 88.2 ± 21 | 73.1 ± 28 | 96.6 ± 15 | 96.883 ± 0.01
